Measurements: PMC3531252 (EJNMMI Research, 2012)
Several values for one entry are separate records, joined by “and”; a condition that tells them apart may be missing. Identical values can stand only once.

What was measured:
GlyT1 [1] = biological target: T1, GlyT1 (Homo sapiens, UniProt P48067); experiment: in vitro whole-hemisphere autoradiography on human brain slices; type: binding; conditions: blocker 10 μM
T1 construct: whole-hemisphere autoradiography (ARG) on human brain slices; from tissue; host or cells: post-mortem human brain whole-hemisphere cryosections
T1 sequence (P48067 1-706): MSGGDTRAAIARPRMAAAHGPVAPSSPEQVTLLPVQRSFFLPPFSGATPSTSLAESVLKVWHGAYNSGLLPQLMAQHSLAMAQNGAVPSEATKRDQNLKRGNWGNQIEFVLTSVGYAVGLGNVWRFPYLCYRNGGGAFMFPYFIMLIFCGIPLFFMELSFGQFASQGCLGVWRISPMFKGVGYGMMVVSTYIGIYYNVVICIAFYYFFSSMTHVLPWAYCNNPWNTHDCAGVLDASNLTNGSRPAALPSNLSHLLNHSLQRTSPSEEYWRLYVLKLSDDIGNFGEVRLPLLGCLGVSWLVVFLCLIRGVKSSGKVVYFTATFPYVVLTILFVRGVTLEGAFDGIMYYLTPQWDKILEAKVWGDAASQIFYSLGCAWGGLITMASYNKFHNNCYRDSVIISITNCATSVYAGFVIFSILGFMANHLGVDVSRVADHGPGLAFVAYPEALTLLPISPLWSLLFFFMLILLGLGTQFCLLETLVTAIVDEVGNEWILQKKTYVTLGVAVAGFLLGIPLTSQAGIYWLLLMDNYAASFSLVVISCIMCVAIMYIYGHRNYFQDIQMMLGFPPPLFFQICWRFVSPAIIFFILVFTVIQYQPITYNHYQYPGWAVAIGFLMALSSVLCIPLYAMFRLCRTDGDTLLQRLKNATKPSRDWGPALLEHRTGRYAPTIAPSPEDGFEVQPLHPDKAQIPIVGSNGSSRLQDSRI
Method: Human brains without pathology were obtained from the National Institute of Forensic Medicine, Karolinska Institutet (Stockholm, Sweden) as well as from the Department of Forensic and Insurance Medicine, Semmelweis University, Budapest. […] The sectioning of the brains and the autoradiography experiments were performed at the Department of Clinical Neuroscience, Karolinska Institutet. The cryosectioning took place on a Leica cryomacrocut system (San Marcos, CA, USA) [28, 29]. Horizontal sections (100 μm thick, containing cerebral cortex, white matter, cerebellum, and pons) and coronal sections (100 μm thick, containing cerebral cortex, white matter, putamen, and caudate nucleus) were used. […] For comparison with other GlyT1 radioligands, blocking was also made with SSR504734 (10 μM). The slices were rinsed thrice for 3 min each with cold (5°C) washing buffer (120 mM NaCl, 50 mM Tris–HCl, pH = 7.5) and subsequently dipped into cold water. The slides were then placed on an imaging plate (Fujifilm Plate BAS-TR2025, Fujifilm, Tokyo, Japan) for 20 min. The plates were developed, and the resulting images were processed in a Fujifilm BAS-5000 phosphorimager (Fujifilm, Tokyo, Japan). […] The autoradiography (ARG) signal's optical density was measured using Multi Gauge 3.2 image analysis software (Fujifilm, Tokyo, Japan).

GlyT1 [2] = experiment: GlyT1 occupancy and VND by Lassen plot, PET in rhesus monkeys; type: in vivo, rhesus monkey; conditions: for GlyT1 occupancy: seven regions
Method: PET measurements were performed for 123 min immediately after i.v. injection of radioligand at baseline and after pretreatment with SSR504734. SSR504734 was administered over 15 min, starting 30 min before the radioligand injection. PET measurements were performed on two separate days with two monkeys. One baseline PET measurement and one PET measurement after pretreatment with 1.5 mg/kg of SSR504734 were performed on one monkey. One baseline PET measurement and one PET measurement after pretreatment with 4.5 mg/kg were performed on the other monkey.
GlyT1 occupancy was estimated by applying Lassen plot approach, which can determine nondisplaceable distribution volume (VND) and occupancy using VT values at baseline and after pretreatment. Seven regions (the pons, cerebellum, putamen, frontal cortex, caudate, anterior cingulate cortex, and temporal cortex) were used for the plot.

**Q.** For `O=C(N[C@@H](c1ccccc1)[C@@H]1CCCCN1)c1cccc(C(F)(F)F)c1Cl` [SSR504734, reference compound], which “reduction of [11C]N-methyl-SSR504734 binding by blocker” value (GlyT1 [1]) is on record?
**A.** Its value is “prominent in the white matter and pons”.

**Q.** What about the GlyT1 occupancy (GlyT1 [2]; 1.5 mg/kg SSR504734, rhesus monkey 1, Lassen plot) of the same molecule?
**A.** The GlyT1 occupancy was 45% and 45.2%.

**Q.** What about the GlyT1 occupancy (GlyT1 [2]; 4.5 mg/kg SSR504734, rhesus monkey 2, Lassen plot) of the same molecule?
**A.** Its GlyT1 occupancy is 74.3%.

**Q.** And the “Kd of occupancy-dose relationship” value (GlyT1 [2]; Omax assumed 100%)?
**A.** Its value is 1.7 mg/kg.
